What was measured:
HDAC [1] = assay: HDAC inhibition on whole HT-29 cells; format: cell-based
Experimental: (§1) Pure cultures of bacteria were grown anaerobically in YCFA+ broth until they reached their stationary growth phase. Cultures were centrifuged at 5,000×g for 5 minutes and the cell-free supernatant (CFS) was filtered using a […] (Millipore, UK). 1 mL aliquots of the CFS were stored at −80° C. until use. Sodium butyrate, hexanoic and valeric acid were obtained from Sigma Aldrich (UK) and suspensions were prepared in YCFA+ broth.
(§2) To investigate which metabolites were responsible for the strain-induced HDAC inhibition, different concentrations of hexanoic acid, valeric acid and sodium butyrate were measured for their HDAC inhibition on whole HT-29 cells and on HT-29 cell lysate.

HDAC [2] = assay: HDAC inhibition on HT-29 cell lysate; format: biochemical
Experimental: as §1, §2

IL-8 [3] = assay: IL-8 secretion in U373 cells treated with SCFAs or supernatant fractions (ELISA); format: cell-based, Human; conditions: U373 cells pre-treated 1 h with 1 μg/ml LPS, increasing concentrations
Experimental: Human glioblastoma astrocytoma cell line (U373), were maintained in 25 ml MEME 4.5 g/L D-glucose supplemented with 10% heat-inactivated FBS, 4 mM L-Glutamine, 100 U/ml penicillin, 100 μg/ml streptomycin and 5 μg/ml plasmocin, 1% Non-Essential Amino Acids, 1% Sodium Pyruvate (referred to as full growth media).
U373 cells were prepared as described above. Cells were pre-treated for 1 h with 1 μg/ml LPS indicated above and incubated at 37° C. and 5% CO2. After 1 h pre-incubation, cells were removed from CO2 incubator and treated with increasing concentration of fresh prepared Sodium Butyrate (SB), Sodium Valerate (SV) and Hexanoic Acid (HA).
U373 cells were prepared as described above. Cells were pre-treated for 1 h with 1 μg/ml LPS as indicated above. Afterwards, cells were removed from CO2 incubator and treated with 100 μl of the different fractions. Fractions from media were used as controls. Cell-free supernatants were collected 24 h after treatment and analysed by ELISA for IL-8 secretion (as outlined above).

[4] = test system: SKMEL31 melanoma cell line; assay: Soft agar growth of SKMEL31 cell line; format: cell-based; conditions: SKMEL31, added to MRx0029
Experimental: (§3) A mixture of 25 μL prewarmed (37° C.) 2× appropriate growth medium (EMEM for melanoma cell lines; DMEM high glucose for HT29) containing 20% FBS, 4 mM L-Glu, 2×NEAA, 0.6% sodium bicarbonate, 200 U/mL penicillin/streptomycin (Invitrogen), and 25 μL prewarmed (47° C.) 1.2% Noble Agar (A5431; Sigma Aldrich) were plated onto each well of a 96-well microplate to serve as a prelayer for the assay. Ten microliters of cell suspensions containing 0-2×10^3 cells were mixed with 25 μL 2× growth media and 35 μL 0.8% Noble Agar in a 96-well round-bottom polypropylene microplate and transferred to the 96-well microplate containing the solidified prelayers. […] They left to grow in the humidified 37° C. incubator with 5% CO2 for 1-2 weeks before soft agar growth was scored using the CytoSelect 96 well cell transformation assay (CBA-130; Cell Biolabs) according to the manufacturer's protocol. Cell growth was measured using a Tecan Infinite F200 Pro Series Multi-Well Plate Reader (Tecan Biosystems), with excitation at 485 nm and emission at 530 nm. […]
(§4) The effects of the following treatments were assessed on the SKMEL31 melanoma cell line (heterozygous for BRAF V600E): (1) MRx0029; (2) Vemurafenib (VEMU) in YFCA+ medium; (3) VEMU and MRx0029; (4) Azacytidine-C (Aza-c) in YFCA+ medium; (5) Aza-c and MRx0029; (6) VEMU, Aza-c and MRx0029.

[5] = test system: SKMEL31 melanoma cell line; assay: Clonogenic survival of SKMEL31 cell line; format: cell-based; conditions: SKMEL31, added to MRx0029
Experimental: (§5) Cells were trypsinized and 200 cells/well were seeded in 12-well plates. After 48 h cells were treated with the appropriate drugs in absence (YCFA+) or presence of 10% bacterial supernatant and were re-fed every three days. On day 21 after seeding, cells were fixed in ice-cold methanol and stained with Crystal Violet blue. […] were counted and survival fraction was calculated as number of colonies divided by the number of plated cells (plating efficiency) of treated divided by the plating efficiency of control.
as §4

451Lu melanoma cell line = assay: Soft agar growth of 451Lu cell line; format: cell-based; conditions: added to MRx0029
Experimental: as §3
The effects of the following treatments were assessed on the 451Lu melanoma cell line (V600E oncogenic mutation in BRAF): (1) MRx0029; (2) Vemurafenib (VEMU) in YFCA+ medium; (3) VEMU and MRx0029; (4) Azacytidine-C (Aza-c) in YFCA+ medium; (5) Aza-c and MRx0029; (6) VEMU, Aza-c and MRx0029.

[6] = test system: HT29 colorectal cancer cell line; assay: Clonogenic survival of HT29 cell line; format: cell-based; conditions: HT29, added to MRx0029
Experimental: as §5
The effects of the following treatments were assessed on the HT29 colorectal cancer cell line (V600E oncogenic mutation in BRAF): (1) MRx0029; (2) Vemurafenib (VEMU) in YFCA+ medium; (3) VEMU and MRx0029; (4) Azacytidine-C (Aza-c) in YCFA+ medium; (5) Aza-c and MRx0029; (6) VEMU, Aza-c and MRx0029.

IL-8 [7] = assay: IL-8 secretion by differentiated HT29-mtx cells; format: cell-based; conditions: 24 h, vs untreated and YCFA+-treated cells
Description: The ability of MRx0029 to cause any intestinal barrier dysfunction was investigated. HT29-mtx epithelial, mucin-producing cell monolayers were used as an in vitro model to evaluate gut barrier disruption and immune stimulation following treatment with MRx0029.

Compound | HDAC inhibition on whole HT-29 cells (HDAC [1]) | HDAC inhibition on HT-29 cell lysate (HDAC [2]) | LPS-induced secretion of IL-8 (IL-8 [3]) | other results
CCCCCC(=O)O [hexanoic acid] | did not show significant inhibitory activity | did not show significant inhibitory activity | did not inhibit IL-8 secretion | 
CCCCC(=O)[O-].[Na+] [SV, sodium valerate] |  |  | increased LPS-induced secretion of IL-8 | 
Nc1ncn([C@@H]2O[C@H](CO)[C@@H](O)[C@H]2O)c(=O)n1 [Aza-c, Azacytidine-C] |  |  |  | effect on soft agar growth inhibition by MRx0029 [4]: improved; effect on clonogenic survival inhibition by MRx0029 [5]: improved; effect on soft agar growth inhibition by MRx0029 (451Lu melanoma cell line): enhanced soft agar growth inhibition by MRx0029; effect on inhibition of clonogenic survival by MRx0029 [6]: improved the effects of MRx0029 in inhibiting clonogenic survival
CCCCC(=O)O [valeric acid] | inhibited HDAC activity | inhibited HDAC activity |  | 
CCCC(=O)[O-].[Na+] [sodium butyrate] | significant (P<0.05) inhibition of HDAC activity | significant (P<0.05) inhibition of HDAC activity | increased LPS-induced secretion of IL-8 | 
CCCCCCCCCCCCCC(=O)O[C@@H]1[C@@H](C)[C@@]2(O)[C@@H](C=C(CO)C[C@]3(O)C(=O)C(C)=C[C@@H]23)[C@@H]2C(C)(C)[C@]12OC(C)=O [PMA, phorbol 12-myristate-13-acetate, reference compound] |  |  |  | secretion of IL-8 (IL-8 [7]): secreted a significant amount of IL-8
